The target in experiment [1] is T1, cathepsin B (Bos taurus, UniProt P07688).
T1 construct: purchased Sigma; host or cells: bovine spleen
Put plainly: Determination of cathepsin B-inhibitory activity. Format: biochemical, bovine. The settings on record: read-out: inhibition rate, cathepsin B. As for the experimental part: (§1) The methods for the measurement of inhibitory activities against various proteases and the method for calculating the inhibition rate are as follows.
Determination of cathepsin B-inhibitory activity
Similarly, by following the procedure mentioned above, but employing a 100 mM sodium phosphate buffer (pH 6.0; containing 1.33 mM EDTA Na2) as a buffer for measurement, a 0.02 μM solution of cathepsin B (derived from bovine spleen, Sigma) in the same buffer as an enzyme solution and a 200 μM solution of 7-(N-benzyloxycarbonyl-phenylaranyl-arginyl)-4-methylcoumarinamide (Peptide Institute, Inc.) in the same buffer as a substrate solution, each fluorescence (f1, f2 and f3) was determined, respectively.
(§2) Using the fluorescence x1, x2 and x3 measured in the abovementioned manner, the inhibitory rate against various proteases was calculated by the following formula where x stands for b, c, d, e or f: [formula]

Experiment [2] relates to leucine aminopeptidase. Put plainly: Determination of leucine aminopeptidase-inhibitory activity. In kind it is biochemical, swine. More on the design: unit not given here. The procedure: as §1
Determination of leucine aminopeptidase-inhibitory activity
Similarly, by following the procedure mentioned above, but employing a 50 mM Tris-HCl buffer (pH 8.0) as a buffer for measurement, a […] solution of leucine aminopeptidase (derived from swine kidney, Sigma) in the same buffer as an enzyme solution and a 200 μM solution of 7-leucyl-4-methyl-coumarinamide (Peptide Institute, Inc.) in the same buffer as a substrate solution, each fluorescence (d1, d2 and d3) was determined, respectively.
as §2

Experiment [3] concerns the target T2, prolyl endopeptidase (Rattus norvegicus, UniProt O70196).
T2 construct: prolyl endopeptidase extracted from rat brain; from tissue; host or cells: rat brain
Kind of experiment: Prolyl endopeptidase-inhibitory activity. In kind it is biochemical. The conditions noted are these: for inhibition at 0.1 µM / inhibition at 1 µM: read-out: inhibition rate, prolyl endopeptidase; for IC50: prolyl endopeptidase extracted from rat brain, pH 7.0, 30° C., read-out: IC50. The procedure: Prolyl endopeptidase-inhibitory activity
A mixture of a 0.1M potassium sodium phosphate buffer (pH 7.0) (2675 μl), a solution of the compounds of the present invention in a 0.1M potassium sodium phosphate buffer (pH 7.0) (100 μl) and a solution of prolyl endopeptidase extracted from rat brain in a 25 mM sodium phosphate buffer (100 μl) [123 unit/1, pH 6.8, containing 1 mM dithiothreitol and 0.5 mM EDTA, prepared by the method described in J. Neurochem., 35, 527 (1980)]was preincubated at 30° C. for 30 minutes. Thereto was added a 0.2 mM solution of 7-(N-succinyl-glycyl-prolyl)-4-methylcoumarinamide (Peptide Institute, INC.) in a 0.1M potassium sodium phosphate buffer (pH 7.0) (125 μl), and the mixture was incubated at 30° C. for 1 hour. The reaction mixture was immersed in ice (0° C.) to terminate the reaction, and the fluorescence (a1) was determined ten minutes later (excitation at 370 nm and emission at 440 nm). Concurrently, there were conducted the experiment wherein, in the above system, the prolyl endopeptidase solution was substituted for a 25 mM sodium phosphate buffer (pH 6.8, containing 1 mM dithiothreitol and 0.5 mM EDTA) and the experiment wherein the solution of the compounds of the present invention was substituted for a 0.1M potassium sodium phosphate buffer (pH 7.0). Each fluorescence (a2 and a3) was determined respectively [See Tanpakushitsu Kakusan Koso, 29, 127 (1984)]. The prolyl endopeptidase-inhibition rate was calculated by the following formula, and IC50, a concentration of a compound producing 50% inhibition, was estimated by semilogarithmic graph paper. [formula] […]

The target in experiment [4] is T3, elastase (Sus scrofa, UniProt P00772).
T3 construct: purchased Sigma; host or cells: swine pancreas
Kind of experiment: Determination of elastase-inhibitory activity. In kind it is biochemical, swine. The conditions noted are these: read-out: inhibition rate, elastase. As for the experimental part: as §1
Determination of elastase-inhibitory activity
Similarly, by following the procedure mentioned above, but employing a 1 mM Tris-HCl buffer (pH 8.5) as a buffer for measurement, a 0.2 μM solution of elastase (derived from swine pancreas, Sigma) in the same buffer as an enzyme solution and a 200 μM solution of 7-(N-succinyl-aranyl-prolyl-aranyl)-4-methylcoumarinamide (Peptide Institute, Inc.) in the same buffer as a substrate solution, each fluorescence (e1, e2 and e3) was determined, respectively.
as §2

For experiment [5], the target named is T4, trypsin (Bos taurus, UniProt P00760).
T4 construct: purchased Sigma; host or cells: bovine pancreas
T4 sequence (P00760 24-246): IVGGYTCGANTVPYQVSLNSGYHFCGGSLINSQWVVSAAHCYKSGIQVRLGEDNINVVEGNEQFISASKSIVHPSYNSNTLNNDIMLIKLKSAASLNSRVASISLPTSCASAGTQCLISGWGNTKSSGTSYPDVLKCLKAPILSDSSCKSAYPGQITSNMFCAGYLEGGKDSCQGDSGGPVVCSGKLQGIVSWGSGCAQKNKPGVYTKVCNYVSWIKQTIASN
Kind of experiment: Determination of trypsin-inhibitory activity. In kind it is biochemical, bovine. The conditions noted are these: read-out: inhibition rate, trypsin. As for the experimental part:
as §1
Determination of trypsin-inhibitory activity
In the present invention, a 50 mM Tris-HCl buffer (pH 8.0) was employed as a buffer for measurement.
To a mixture of the above-mentioned buffer (850 μl), a solution of the compounds of the present invention in the same buffer (50 μl) and a 0.02 μM solution of trypsin (derived from bovine pancreas, Sigma) in the same buffer (50 μl) was added a 200 μM solution of 7-(prolyl-phenylaranyl-arginyl)-4-methylcoumarinamide (Peptide Institute, Inc.) in the same buffer (50 μl),and the mixture was incubated at 30° C. for 1 hour. The reaction mixture was immersed in ice (0° C.) to terminate the reaction, and the fluorescence (b1) was determined 1 hour later (excitation at 370 nm and emission at 440 nm). Concurrently, there were conducted the experiment wherein, in the system above, the trypsin solution was substituted for a buffer alone, and the experiment wherein the solution of the compounds of the present invention was substituted for a buffer above. Each fluorescence (b2 and b3) was determined respectively.
as §2

Experiment [6] deals with T5, chymotrypsin (Bos taurus, UniProt P00766).
T5 construct: purchased Sigma; host or cells: bovine pancreas
Kind of experiment: Determination of chymotrypsin-inhibitory activity. Format: biochemical, bovine. The conditions noted are these: read-out: inhibition rate, chymotrypsin. As for the experimental part: as §1
Determination of chymotrypsin-inhibitory activity
Similarly, by following the procedure mentioned above, but employing a 50 mM Tris-HCl buffer (pH 8.0) as a buffer for measurement, a 0.2 μM solution of chymotrypsin (derived from bovine pancreas, Sigma) in the same buffer as an enzyme solution and a […] solution of 7-(N-succinyl-leucyl-leucyl-valyl-tyrosyl)-4-methylcoumarinamide (Peptide Institute, Inc.) in the same buffer as a substrate solution, each fluorescence (c1, c2 and c3) was determined, respectively.
as §2

T3 sequence (P00772 27-266): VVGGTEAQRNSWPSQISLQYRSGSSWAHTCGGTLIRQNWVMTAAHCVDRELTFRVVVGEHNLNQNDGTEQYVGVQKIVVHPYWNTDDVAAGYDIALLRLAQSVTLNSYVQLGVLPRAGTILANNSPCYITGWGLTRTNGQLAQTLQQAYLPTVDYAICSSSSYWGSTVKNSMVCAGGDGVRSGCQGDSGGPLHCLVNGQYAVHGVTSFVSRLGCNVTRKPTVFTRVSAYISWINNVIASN
T2 sequence (O70196 whole entry): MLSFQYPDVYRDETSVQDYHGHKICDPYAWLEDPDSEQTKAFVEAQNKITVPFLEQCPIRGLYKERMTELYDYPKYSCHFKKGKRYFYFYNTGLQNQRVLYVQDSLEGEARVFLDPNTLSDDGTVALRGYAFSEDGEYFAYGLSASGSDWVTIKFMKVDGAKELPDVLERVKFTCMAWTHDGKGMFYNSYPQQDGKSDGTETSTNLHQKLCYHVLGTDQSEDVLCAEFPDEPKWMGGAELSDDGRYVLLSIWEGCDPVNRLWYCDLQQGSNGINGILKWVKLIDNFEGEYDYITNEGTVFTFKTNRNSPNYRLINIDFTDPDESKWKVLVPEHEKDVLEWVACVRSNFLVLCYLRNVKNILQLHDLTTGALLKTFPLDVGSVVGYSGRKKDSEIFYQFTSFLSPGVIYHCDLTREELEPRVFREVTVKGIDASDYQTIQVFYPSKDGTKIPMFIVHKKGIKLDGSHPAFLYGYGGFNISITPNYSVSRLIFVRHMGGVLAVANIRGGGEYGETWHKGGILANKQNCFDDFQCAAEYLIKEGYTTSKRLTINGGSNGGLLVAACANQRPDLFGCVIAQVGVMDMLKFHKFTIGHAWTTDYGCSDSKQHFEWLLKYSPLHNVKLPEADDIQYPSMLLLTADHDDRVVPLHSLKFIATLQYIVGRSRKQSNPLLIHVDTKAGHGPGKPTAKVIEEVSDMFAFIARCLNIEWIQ

As to `O=C(C[S@@+]([O-])c1ccccc1)[C@@H]1CCCN1C(=O)[C@@H]1CCCN1C(=O)OCc1ccccc1` [Compound 10, (2S)-1-(N-Benzyloxycarbonyl-L-prolyl)-2-{[(R)-phenylsulfinyl]acetyl}pyrrolidine], the inhibition at 0.1 µM amounted to 0% in experiment [1]; 97% in experiment [3]; 0% in experiment [4]; 0% in experiment [5]; 0% in experiment [6]. In addition, the “inhibition rate, leucine aminopeptidase” value in experiment [2] (0.1 μM) is given as 0. In experiment [3], the half-inhibitory concentration (IC50) came to 80 nM.

In the case of `COc1ccc([S@@+]([O-])CC(=O)[C@@H]2CCCN2C(=O)[C@@H]2CCCN2C(=O)OCc2ccccc2)cc1` [Compound 11, (2S)-1-(N-Benzyloxycarbonyl-L-prolyl)-2-{[(S)-4-methoxy-phenylsulfinyl]acetyl}pyrrolidine], the inhibition at 0.1 µM in experiment [1] is 0%; in experiment [3], 90%; in experiment [4], 0%; in experiment [5], 0%; in experiment [6], 0%. Moreover, the “inhibition rate, leucine aminopeptidase” value in experiment [2] (0.1 μM) was 0. For the same compound, the IC50 in experiment [3] stood at 1.5 nM.

As to `COc1ccc([S@+]([O-])CC(=O)[C@@H]2CCCN2C(=O)[C@@H]2CCCN2C(=O)OCc2ccccc2)cc1` [Compound 12, (2S)-1-(N-Benzyloxycarbonyl-L-prolyl)-2-{[(R)-4-methoxy-phenylsulfinyl]acetyl}pyrrolidine], the inhibition at 1 µM in experiment [1] was found to be 0%; in experiment [3], 92%; in experiment [4] it was 0%; in experiment [5], 0%; in experiment [6], 0%. Also, the “inhibition rate, leucine aminopeptidase” value in experiment [2] (1 μM) turned out to be 0. In experiment [3], the IC50 is 20 nM.

`Cc1ccc([S@@+]([O-])CC(=O)[C@@H]2CCCN2C(=O)[C@@H]2CCCN2C(=O)OCc2ccccc2)cc1` [Compound 13, (2S)-1-(N-Benzyloxycarbonyl-L-prolyl)-2-{[(S)-p-tolyl-sulfinyl]acetyl}pyrrolidine]: the inhibition at 0.1 µM in experiment [1] was 0%; in experiment [3], 98%; in experiment [4], 0%; in experiment [5], 0%; in experiment [6], 0%. Moreover, the “inhibition rate, leucine aminopeptidase” value in experiment [2] (0.1 μM) was 0. Further, the IC50 in experiment [3] is 0.3 nM.

`Cc1ccc([S@+]([O-])CC(=O)[C@@H]2CCCN2C(=O)[C@@H]2CCCN2C(=O)OCc2ccccc2)cc1` [Compound 14]: the inhibition at 0.1 µM in experiment [1] was 0%; in experiment [3] it was 97%; in experiment [4] it was 0%; in experiment [5] it was 0%; in experiment [6], 0%. Moreover, in experiment [2] (0.1 μM), the “inhibition rate, leucine aminopeptidase” value was found to be 0. Also, the IC50 in experiment [3] came to 1.5 nM.

As to `COc1ccc([S@@+]([O-])CC(=O)[C@@H]2CCCN2C(=O)[C@@H]2CCCN2C(=O)CCc2ccccc2)cc1` [Compound 15], the inhibition at 0.1 µM stood at 0% in experiment [1]; 98% in experiment [3]; 0% in experiment [4]; 0% in experiment [5]; 0% in experiment [6]. In addition, the “inhibition rate, leucine aminopeptidase” value in experiment [2] (0.1 μM) is listed as 0. For the same compound, in experiment [3], the IC50 came to 2.5 nM.

`Cc1ccc([S@@+]([O-])CC(=O)[C@@H]2CCCN2C(=O)[C@@H]2CCCN2C(=O)CCc2ccccc2)cc1` [Compound 16, (2S)-1-[N-(3-Phenylpropionyl)-L-prolyl]-2-{[(S)-p-tolylsulfinyl]acetyl}pyrrolidine]: the inhibition at 0.1 µM came out at 0% in experiment [1]; 99% in experiment [3]; 0% in experiment [4]; 0% in experiment [5]; 0% in experiment [6]. For the same compound, the “inhibition rate, leucine aminopeptidase” value in experiment [2] (0.1 μM) is 0. Moreover, the concentration for half-maximal inhibition (IC50) in experiment [3] came to 1.5 nM.

As to `O=C(C[S@+]([O-])c1ccccc1)[C@@H]1CCCN1C(=O)[C@@H]1CCCN1C(=O)CCc1ccccc1` [Compound 17, (2S)-1-[N-(3-Phenylpropionyl)-L-prolyl]-2-{[(S)-phenylsulfinyl]acetyl}pyrrolidine], the inhibition at 0.1 µM in experiment [1] was found to be 0%; in experiment [3] it was 99%; in experiment [4], 0%; in experiment [5], 0%; in experiment [6], 0%. Besides, the “inhibition rate, leucine aminopeptidase” value in experiment [2] (0.1 μM) is 0. The IC50 in experiment [3] came to 0.5 nM.

On to `COc1ccc(OCC(=O)[C@@H]2CCCN2C(=O)[C@@H]2CCCN2C(=O)OCc2ccccc2)cc1` [Compound 18, (2S)-1-(N-Benzyloxycarbonyl-L-prolyl)-2-[(4-methoxyphenoxy)-acetyl]pyrrolidine], for which the inhibition at 0.1 µM in experiment [1] was determined as 0%; in experiment [3], 93%; in experiment [4], 0%; in experiment [5], 0%; in experiment [6], 0%. For the same compound, the “inhibition rate, leucine aminopeptidase” value in experiment [2] (0.1 μM) was found to be 0. Also, the IC50 in experiment [3] came out at 1.5 nM.

For the compound `O=C(COc1ccccc1)[C@@H]1CCCN1C(=O)[C@@H]1CCCN1C(=O)CCc1ccccc1` [Compound 19, (2S)-2-(Phenoxyacetyl)-1-[N-(3-phenylpropionyl)-L-prolyl]-pyrrolidine], the inhibition at 1 µM in experiment [1] worked out at 0%; in experiment [3], 98%; in experiment [4], 0%; in experiment [5], 0%; in experiment [6], 0%. Also, in experiment [2] (1 μM), the “inhibition rate, leucine aminopeptidase” value came out at 0. Besides, in experiment [3], the IC50 worked out at 15 nM.

As usually defined, the inhibition is the relative decrease from the control value, in per cent. In general, IC50 refers to the point on the concentration scale where inhibition reaches its midpoint.
